US6649654B1, “Methods for identifying and using IKK inhibitors” (The Regents of the University of California, priority 1999, dated 2003)
“Also recorded” adds a separate entry of the source.

Tests used:
IKK = IKK (Homo sapiens, UniProt O14920+O15111); assay: TNFα-induced IKK activity in human peripheral blood monocytes; type: cell-based
IKKβ [1] = target: T1, IKKβ (Homo sapiens, UniProt O14920); assay: Recombinant wild-type IKKβ (Sf9) kinase activity; type: biochemical; design: FLAG; made in house; host or cells: Sf9 (baculovirus)
T1 sequence (O14920 1-756): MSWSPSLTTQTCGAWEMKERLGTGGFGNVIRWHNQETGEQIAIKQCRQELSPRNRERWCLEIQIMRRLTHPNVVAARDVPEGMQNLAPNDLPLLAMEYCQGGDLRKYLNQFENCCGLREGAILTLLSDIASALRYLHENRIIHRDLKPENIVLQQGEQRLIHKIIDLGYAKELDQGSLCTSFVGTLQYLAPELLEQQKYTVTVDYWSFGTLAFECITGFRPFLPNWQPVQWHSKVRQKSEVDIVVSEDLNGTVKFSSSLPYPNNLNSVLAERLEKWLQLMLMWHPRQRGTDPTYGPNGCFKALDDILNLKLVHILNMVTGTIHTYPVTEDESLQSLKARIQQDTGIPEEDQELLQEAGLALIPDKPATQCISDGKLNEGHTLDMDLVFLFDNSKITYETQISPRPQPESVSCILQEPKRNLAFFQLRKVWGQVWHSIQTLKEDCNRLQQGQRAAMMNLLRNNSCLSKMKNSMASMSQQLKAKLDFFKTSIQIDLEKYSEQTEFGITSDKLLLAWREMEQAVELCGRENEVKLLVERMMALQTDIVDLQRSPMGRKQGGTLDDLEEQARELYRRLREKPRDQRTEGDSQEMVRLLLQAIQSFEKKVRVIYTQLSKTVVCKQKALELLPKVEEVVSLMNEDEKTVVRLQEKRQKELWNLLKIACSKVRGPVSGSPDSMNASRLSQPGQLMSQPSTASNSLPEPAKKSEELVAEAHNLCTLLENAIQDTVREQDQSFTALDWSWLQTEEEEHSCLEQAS
Experimental: In addition, recombinant IKKβ was expressed in Sf9 cells and purified as described (Zandi et al., supra). AA, PGs, LTB4, and T×B2 were added to washed imnmunoprecipitates of recombinant IKKβ in kinase buffer to a final volume of 500 μl. After 1.5 hours at 4° C., the immunoprecipitates were washed and the kinase activity determined. Western blot analysis was also performed as known in the art (See e.g., Rossi et al., supra).
In other experiments, purified recombinant IKKβ immobilized on beads with 15dPGJ2 or diluent were preincubated and extensively rinsed with kinase buffer lacking the inhibitor.

p38 [2] = target: T2, p38 (Homo sapiens, UniProt Q16539); assay: In vitro p38 kinase activity; type: biochemical; design: Endogenous IKK, HA-tagged IKKα, endogenous JNK1, and p38 activities were determined; endogenous in cells; conditions: in vitro incubation with up to 60 μM
Experimental: Cell lysates were incubated with anti-IKKα (Pharmingen), anti-HA (12CA5; Pharmingen), anti-JNK1 (333.8; Pharmingen), or anti-p38 (New England Biolabs) for 2 hours. Then, 15 μl protein A-Sepharose (Sigma) were added and the mixture was allowed to incubate for 1 hour. After extensive washing, kinase assays were performed as known in the art (See e.g., DiDonato et al., Nature 388:548-554 [1997]). Endogenous IKK, HA-tagged IKKα, endogenous JNK1, and p38 activities were determined with GST-1κBα(1-54), GST-c-Jun(1-79), and GST-ATF2 as substrates.
Endogenous IKK was immunoprecipitated from TNFα-stimulated HeLa cells and the kinase activity determined in the presence of different concentrations of PGA1 (the results of which are shown in FIG. 2B) or 15dPGJ2 (the results of which are shown in FIG. 2C).

IKKβ [3] = target: T1, IKKβ; assay: HA-tagged IKKβ overexpressed in COS cells: kinase activity and expression; type: cell-based
Experimental: (§1) Cells used in the experiments described herein were cultured in either RPMI 1640 (Jurkat cells) or DMEM (HeLa and COS cells), supplemented with 10% FBS and antibiotics. Cells were stimulated with either 25 ng/ml TPA, 20 ng/ml recombinant TNFα, or 10 ng/ml interleukin 1β (Sigma). PGA1, 15dPGJ2, T×B2, LTB4, AA and other PGs (Cayman) dissolved in ethanol were used as well, as known in the art (See e.g., Rossi et al., 94:746-750 [1997]). Controls received equal amounts of ethanol. Transfections were performed using Lipofectamine Plus (GIBCO) for HeLa and COS cells and DEAE-dextran (Sigma) for Jurkat cells. Xpress-tagged NIK, Xpress-tagged MEKK1, HA-tagged IKKα, and HA-tagged IKKβ were also used (See e.g., Zandi et al., Science 281:1360-1363 [1998]; and Delhase et al., Science 284:309-313 [1999]). COX2 and cPLA2 expression vectors were obtained from Dr. L. Feng (See also, Hirose et al., J. Am. Soc. Nephrol., 9:408-416 [1998]). PGD synthase was cloned from HT29 colon carcinoma cell line cDNA by PCR and subcloned into a pCDNA3 vector. […]
(§2) Cell lysates were incubated with anti-IKKα (Pharmingen), anti-HA (12CA5; Pharmingen), anti-JNK1 (333.8; Pharmingen), or anti-p38 (New England Biolabs) for 2 hours. […] Endogenous IKK, HA-tagged IKKα, endogenous JNK1, and p38 activities were determined with GST-1κBα(1-54), GST-c-Jun(1-79), and GST-ATF2 as substrates.

JNK = JNK (Homo sapiens, UniProt P45983); assay: JNK activation in TPA-stimulated Jurkat cells; type: cell-based; design: endogenous in cells; host or cells: Jurkat; conditions: 24 μM PGA1, TPA
Experimental: as §1
as §2, with “substrates. […]” for “substrates.”

p38 [4] = target: T2, p38; assay: p38 MAP kinase activation in TPA-stimulated Jurkat cells; type: cell-based; design: endogenous in cells; host or cells: Jurkat; conditions: 24 μM PGA1, TPA
Experimental: as §1
as §2, with “substrates. […]” for “substrates.”

T2 sequence (Q16539 whole entry): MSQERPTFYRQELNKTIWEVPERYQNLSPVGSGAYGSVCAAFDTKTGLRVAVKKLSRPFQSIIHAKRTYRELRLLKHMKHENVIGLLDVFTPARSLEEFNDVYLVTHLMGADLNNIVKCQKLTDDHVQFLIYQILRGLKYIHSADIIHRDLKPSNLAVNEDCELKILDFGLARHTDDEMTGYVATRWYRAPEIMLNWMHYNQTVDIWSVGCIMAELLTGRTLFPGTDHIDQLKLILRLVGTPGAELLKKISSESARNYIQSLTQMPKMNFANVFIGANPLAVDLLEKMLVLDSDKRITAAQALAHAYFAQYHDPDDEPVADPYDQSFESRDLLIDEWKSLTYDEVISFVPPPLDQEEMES
Chain of JNK (P45983 whole entry): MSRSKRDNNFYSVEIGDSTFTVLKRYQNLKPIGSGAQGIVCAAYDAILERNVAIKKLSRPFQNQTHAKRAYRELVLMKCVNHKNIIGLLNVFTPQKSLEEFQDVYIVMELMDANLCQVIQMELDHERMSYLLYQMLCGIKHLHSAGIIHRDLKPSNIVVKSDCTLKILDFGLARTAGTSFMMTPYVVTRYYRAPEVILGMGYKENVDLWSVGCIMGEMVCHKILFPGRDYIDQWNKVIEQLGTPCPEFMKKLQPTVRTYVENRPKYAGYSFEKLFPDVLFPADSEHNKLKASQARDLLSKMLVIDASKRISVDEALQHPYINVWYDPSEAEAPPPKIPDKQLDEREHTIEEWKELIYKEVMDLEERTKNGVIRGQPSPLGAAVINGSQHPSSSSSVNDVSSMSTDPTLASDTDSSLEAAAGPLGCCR
Chain of IKK (O15111 whole entry, one chain of several): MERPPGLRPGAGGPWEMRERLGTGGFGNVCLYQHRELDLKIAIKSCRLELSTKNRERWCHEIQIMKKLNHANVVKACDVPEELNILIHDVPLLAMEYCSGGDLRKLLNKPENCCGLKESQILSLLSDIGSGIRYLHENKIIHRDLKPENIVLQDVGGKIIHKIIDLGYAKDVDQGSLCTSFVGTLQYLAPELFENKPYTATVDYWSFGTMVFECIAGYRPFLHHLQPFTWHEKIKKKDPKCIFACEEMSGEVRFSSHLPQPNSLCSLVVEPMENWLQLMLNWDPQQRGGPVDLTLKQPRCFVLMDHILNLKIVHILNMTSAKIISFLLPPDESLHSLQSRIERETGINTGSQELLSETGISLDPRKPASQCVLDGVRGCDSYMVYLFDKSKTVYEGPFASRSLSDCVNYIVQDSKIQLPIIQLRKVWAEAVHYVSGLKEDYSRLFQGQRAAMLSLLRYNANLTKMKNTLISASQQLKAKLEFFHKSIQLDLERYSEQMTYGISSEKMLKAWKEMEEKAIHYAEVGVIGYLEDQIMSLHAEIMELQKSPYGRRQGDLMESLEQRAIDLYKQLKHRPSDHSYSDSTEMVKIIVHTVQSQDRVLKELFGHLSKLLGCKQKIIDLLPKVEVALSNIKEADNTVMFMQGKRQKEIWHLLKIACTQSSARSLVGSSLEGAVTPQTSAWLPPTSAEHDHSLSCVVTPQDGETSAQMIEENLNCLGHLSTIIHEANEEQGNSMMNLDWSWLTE
Chain of IKK (Q9Y6K9 whole entry partner, one chain of several): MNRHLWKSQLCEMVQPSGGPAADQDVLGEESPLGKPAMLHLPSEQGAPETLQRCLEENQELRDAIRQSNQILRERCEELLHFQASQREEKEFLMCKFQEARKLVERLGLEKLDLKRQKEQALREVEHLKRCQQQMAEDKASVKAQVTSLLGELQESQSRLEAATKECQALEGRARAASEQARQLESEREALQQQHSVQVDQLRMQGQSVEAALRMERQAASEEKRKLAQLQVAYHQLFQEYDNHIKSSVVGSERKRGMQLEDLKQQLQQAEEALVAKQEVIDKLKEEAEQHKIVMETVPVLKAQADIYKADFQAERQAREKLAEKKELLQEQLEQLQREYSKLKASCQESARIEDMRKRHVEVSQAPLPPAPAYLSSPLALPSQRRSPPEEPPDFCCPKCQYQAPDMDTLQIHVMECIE

effect on TNFα-induced IKK activity (IKK)	effect on recombinant wild-type IKKβ (IKKβ [1]; FIG. 6D)	inhibition after extensive washing (reversibility) (IKKβ [1]; recombinant IKKβ on beads pre-incubated with inhibitor, rinsed with kinase buffer)	inhibition of p38 activity in vitro (p38 [2])	effect on IKKβ expression (immunoblotting) (IKKβ [3]; COS cells overexpressing HA-tagged IKKβ)	effect on activation of JNK (JNK)	effect on activation of p38 MAP kinase (p38 [4])	Compound	effect on kinase activity of overexpressed HA-tagged IKKβ (IKKβ [3]; COS cells, PGA1 15 or 30 μM, FIG. 2C)
inhibited	inhibitory	remained inhibited	No significant inhibition	–	–	–	CCCCC/C=C/C=C1/C(=O)C=C[C@@H]1C/C=C\CCCC(=O)O [15dPGJ2, 15-deoxy-Δ^12-14-PGJ2]	–
–	–	–	–	did not affect	did not inhibit	did not inhibit	CCCCC[C@H](O)/C=C/[C@H]1C=CC(=O)C1CCCCCCC(=O)O (some centres unmarked) [PGA1, prostaglandin A1]	strongly inhibited; also recorded: inhibits
